Reference: PMC11125357, “Assessment of Anticancer Properties of Argemone mexicana L. and Berberine: A Comparative Study” (Plants, 2024)
“And” between values parts separate entries of the source, which are not always exact repeats. Identical values can stand only once. “Also recorded” adds a separate entry of the source. Marks after values point to notes of the source that are not given here.

Columns and labels:
[1] = system: murine lymphoma (L5178Y-R) cells; assay: MTT cell viability assay in L5178Y-R cells; assay type: cell-based; settings: Mus musculus, L5178, 72 h of incubation, mean ± SD, read-out: IC50 (µg/mL) in Cells, L5178 Y-R
Experimental: (§1) The HEP-G2 cancer cell line and the normal VERO cell line were cultured in DMEM supplemented with 10% FBS, 2% NaHCO3, and HEPES. All tests performed with these cells were carried out in 96-well flat-bottom plastic microplates (Corning® Labware and Equipment, Oneonta, NY, USA) due to the adherent nature of these cells. L5178Y-R cells and PBMC were maintained in RPMI-1640 culture medium supplemented with 10% FBS and 1% antibiotic/antimycotic solution. All the tests performed with these cells were carried out in 96-well curved-bottom plastic microplates (Corning®) because these cells are non-adherent.
(§2) Prior to the application of the treatments, the cells were incubated at 37 °C in a humidified incubator (Sanyo MCO-19AIC CO2 Incubator, Sanyo Electric Co., Ltd., Gunma-ken, Japan) with 5% CO2 for 24 h for adaptation. The cell viability was determined by MTT assay; MTT color intensity was directly associated with the number of living cells after 72 h of incubation. Mitochondrial enzymes, specifically succinate dehydrogenase, reduce MTT tetrazolium salt to form formazan; this reaction produces a purple–blue product that can be measured using spectrophotometry since the in vitro cell viability can be tested using the MTT colorimetric assay.

[2] = system: HEP-G2 (human hepatocellular carcinoma) cells; assay: MTT cell viability assay in HEP-G2 cells; assay type: cell-based; settings: HepG2, 72 h of incubation, mean ± SD
Experimental: as §1, §2

Hemolytic test = assay type: cell-based; settings: human red blood cells (erythrocytes), pH 7.2; concentration causing 50% hemolysis of human red blood cells, mean ± SD
Experimental: The hemolytic activity was assessed using the hemolysis test. Treatments evaluated were prepared in PBS (pH 7.2 ± 0.2) in concentrations ranging from 10, 100, 200, 400, 600, 800, 1000, and 2000 µg/mL; the percent (%) of hemolysis was determined by measuring the Abs at 540 nm for each treatment.

[3] = system: murine macrophages (J774A.1 cell line); assay: Nitric oxide production (Griess reagent); assay type: cell-based
Experimental: The macrophage cultures were incubated in triplicate in 25 cm^2 tissue culture flasks (Corning Glass Works, Corning®, Oneonta, NY, USA) in a total volume of 7 mL of RPMI-1640 culture medium supplemented with 10% FBS and 1% antibiotic/antimycotic solution and maintained at 37 °C in 5% CO2. A concentration of 200 ng/mL of E. coli O26:B6 LPS served as an inflammatory-inducing agent to stimulate NO production. NO production was assessed by measuring nitrite accumulation in the supernatant using Griess reagent. A standard curve was generated using NaNO2 (1 M) to interpret the test results.

[4] = system: PBMC (human peripheral blood mononuclear) cells; assay: MTT cell viability assay in PBMC; assay type: cell-based; settings: 72 h of incubation, mean ± SD
Experimental: as §1
as §2, with “assay. Therefore, we decided to perform an MTT assay to correlate mitochondrial activity with viability. […]” for “assay.”

[5] = system: VERO (monkey kidney epithelial) non-tumoral cells; assay: MTT cell viability assay in VERO cells; assay type: cell-based, African green monkey; settings: Primates, 72 h of incubation, mean ± SD
Experimental: as §1
as §2, with “assay. Therefore, we decided to perform an MTT assay to correlate mitochondrial activity with viability. […]” for “assay.”

ABTS scavenging test = settings: 50% decrease of ABTS radical, 734 nm, mean ± SD
Experimental: (§3) The antioxidant activity was determined by the DPPH, ABTS radical scavenging, and FRAP (Ferric Reducing Antioxidant Power) methods. In the DPPH and ABTS assays, Vitamin C served as the positive control. In all treatment evaluations, the concentrations ranged from 15.63, 31.25, 62.50, […], 250, 500, and 1000 µg/mL.
The antioxidant activity was determined using the ABTS radical scavenging method, where the antioxidant activity (free radical scavenging capacity) was quantified as IC50 in µg/mL. […] The ABTS radical scavenging assay was conducted in 96-well plastic microplates (Corning®), and the percentage inhibition of ABTS at 734 nm was calculated using Formula (8) as follows:(8) ABTS scavenging %=Abs734nm Control−Abs734 Sample/Abs734nm Control×100

[6] = system: human erythrocytes, AAPH-induced hemolysis; assay: Anti-hemolytic test by the AAPH assay; assay type: cell-based; settings: Erythrocyte; protection against AAPH radical (150 mM) in human erythrocytes, mean ± SD
Experimental: The AAPH inhibition test, as previously reported, was used to determine the anti-hemolytic activity. Hemolysis was induced by the AAPH radical (150 mM, prepared in PBS) as a positive control. The concentrations of the treatments were the same as in the hemolysis assay plus the AAPH.

DPPH scavenging test = settings: 50% decrease of DPPH, 517 nm, mean ± SD
Experimental: as §3
The antioxidant activity was assessed using the DPPH radical assay, where the antioxidant activity (free radical scavenging capacity) was quantified as IC50 in µg/mL. […] The DPPH radical scavenging assay was conducted in a 96-well flat-bottom plastic microplate (Corning®). The percentage inhibition of DPPH at 517 nm was determined using a UV/VIS spectrophotometer and calculated using Formula (7) as follows:(7) DPPH scavenging %=Abs517 Control−Abs517 Sample/Abs517 Control×100

Artemia salina nauplii = assay: Lethality in Artemia salina; assay type: in vivo; settings: 24 h of exposure, mean ± SD
Experimental: Artificial seawater was prepared using 20 g of sea salt and 6 mg of brewer’s yeast dissolved in 500 mL of distilled H2O (pH 7.8). Prior to the assay, the artificial seawater was conditioned by supplying air with an aquarium pump for 24 h. For the hatching of A. salina nauplii, a rectangular glass container (17 × 14 × 7 cm) was adapted, with a dark section where the cysts were incubated and an illuminated area that allows only hatched nauplii to be obtained by means of phototropism. After an incubation period of 48 h under room temperature conditions of 25 ± 2.0 °C (aeration and constant light), the test was carried out using 96-well transparent plastic microplates with a concave bottom (Corning®), in which 20 nauplii and different concentrations of the treatments (10, 100, 200, 400, 600, 800, 1000, and 2000 µg/mL) were deposited in a final volume of 200 µL per well [46]. […] Counting of live and dead larvae in each well of the microplate was performed with the use of a stereoscope microscope. […] A. salina nauplii viability was determined by Formula (6) as follows:(6) A. salina Viability %= Survival Treatment Count/ Survival Control Count×100

## COc1ccc2cc3[n+](cc2c1OC)CCc1cc2c(cc1-3)OCO2 [BER, 16,17-dimethoxy-5,7-dioxa-13-azoniapentacyclo [11.8.0.0^2,10.0^4,8.0^15,20]henicosa-1(13),2,4(8),9,14,16,18,20-octaene]
[1]
  IC50: < 5 µg/mL
[2]
  IC50: 56.9 ± 9.45 µg/mL
Hemolytic test
  IC50: 713 ± 38 µg/mL
[3]; 0.98 to 500 µg/mL
  activity in response to NO production: immunomodulatory activity
[3]; 0.5 h, 0.00–500 µg/mL
  NO production in macrophages compared to LPS: no significant increase in NO production
[3]; 4 h, 0.00–31.25 µg/mL
  NO production in macrophages compared to LPS: no increase in NO production
[3]; 4 h, 62.50–250 µg/mL
  NO production in macrophages compared to LPS: behaved in the same way as LPS
[3]; 4 h, 500–1000 µg/mL
  NO production in macrophages compared to LPS: increase in NO production greater than that of LPS
[3]; 24 h, 0.00–500 µg/mL
  NO production in macrophages compared to LPS: no increase in ON production
[3]; BER at 1000 µg/mL, 0.5, 4 and 24 h
  NO production in macrophages compared to LPS: increased NO production; also recorded: significantly greater effect on NO production compared to LPS
[4]
  IC50: 27.1 ± 7.16 µg/mL
[5]
  IC50: 908 ± 31.9 µg/mL
ABTS scavenging test
  ABTS IC50: 40.29 ± 9.02 ^a,* µg/mL
[6]
  IC50: 36.9 ± 5.49 µg/mL
DPPH scavenging test
  DPPH IC50: 44.80 ± 1.22 ^a,* µg/mL
Artemia salina nauplii
  A. salina LD50: 178.00 µg/mL and 178.00 ± 29.70 ^b,** µg/mL

## O=C1O[C@H]([C@@H](O)CO)C(O)=C1O [Vitamin C, ascorbic acid]
ABTS scavenging test
  ABTS IC50: 81.76 ± 6.30 ^b µg/mL
DPPH scavenging test
  DPPH IC50: 68.90 ± 3.11 ^b µg/mL
